# Test system: HCC461
# Experiment: cell viability assay in HCC461, compound alone
# Assay type: cell-based
# Details: HCC461, HCC461; Tables 6-9; read-out: IC50 (μM) in cell viability assay in HCC461
row,Compound,IC50
1,CN[C@@H](C)C(=O)N[C@H](C(=O)N1C[C@@H](NC(=O)c2cccc(C(=O)NCC[C@@H](NC(=O)[C@H](NC(=O)[C@@H](C)NC)C(C)C)C(=O)N[C@@H](C)C(C)C)c2)C[C@H]1C(=O)N[C@@H]1CCCc2ccccc21)C(C)(C)C [Compound 138],> 30 µM
2,CN[C@@H](C)C(=O)N[C@@H](CCC(=O)O)C(=O)N1C[C@@H](NC(=O)c2cccc(C(=O)N[C@H]3C[C@@H](C(=O)N[C@@H]4CCCc5ccccc54)N(C(=O)[C@@H](NC(=O)[C@H](C)NC)C(C)(C)C)C3)c2)CC1C(=O)N[C@H](C)c1ccccc1 (stereo partly shown) [Compound 147],0.185 µM
3,CN[C@@H](C)C(=O)N[C@@H](CCC(=O)OC)C(=O)N1C[C@@H](NC(=O)c2cccc(C(=O)N[C@H]3C[C@@H](C(=O)N[C@H](C)c4ccccc4)N(C(=O)[C@@H](NC(=O)[C@H](C)NC)C(C)(C)C)C3)c2)CC1C(=O)N[C@H](C)c1ccccc1 (stereo partly shown) [Compound 150],0.121 µM
4,CN[C@@H](C)C(=O)N[C@@H](CC#CC#CC[C@H](NC(=O)[C@H](C)NC)C(=O)N1CCCC[C@H]1C(=O)N[C@@H]1CCCc2ccccc21)C(=O)N1CCCC[C@H]1C(=O)N[C@@H]1CCCc2ccccc21 [Compound 87],0.404 µM

# Same assay, conditions: HCC461, HCC461; Tables 15-18; read-out: IC50 (uM) in cell viability assay in HCC461
row,Compound,IC50
1,CCN[C@@H](C)C(=O)C[C@H](C(=O)N1CCC[C@H]1C(=O)N[C@@H]1CCCc2ccccc21)c1ccc(C#CCO[C@H](C)[C@H](NC(=O)[C@H](C)NC)C(=O)N2CCC[C@H]2C(=O)N[C@@H]2CCCc3ccccc32)cc1 [Compound H-1],0.0171 µM
2,CN[C@@H](C)C(=O)N[C@@H](CCCCNC(=O)c1ccc(C(=O)NCCCC[C@H](NC(=O)[C@H](C)NC)C(=O)N2CCC[C@H]2C(=O)NC(c2ccccc2)c2ccccc2)cc1)C(=O)N1CCC[C@H]1C(=O)NC(c1ccccc1)c1ccccc1 [Compound P2-30],0.189 µM
3,CN[C@@H](C)C(=O)N[C@@H](CCCCCC[C@H](NC(=O)[C@H](C)NC)C(=O)N1CCC[C@H]1C(=O)NC1CCCC2CCCCC21)C(=O)N1CCC[C@H]1C(=O)NC1CCCC2CCCCC21 (stereo partly shown) [Compound P2-23],0.055 µM
4,CN[C@@H](C)C(=O)N[C@H](C(=O)N1CCC[C@H]1C(=O)N[C@H](CNC(=O)c1cccc(C(=O)NC[C@@H](NC(=O)[C@@H]2CCCN2C(=O)[C@@H](NC(=O)[C@H](C)NC)C(C)(C)C)c2ccccc2)c1)c1ccccc1)C(C)(C)C [Compound P4-11],0.068 µM
5,CN[C@@H](C)C(=O)N[C@@H](CCNC(=O)c1cccc(C(=O)NCC[C@H](NC(=O)[C@H](C)NC)C(=O)N2CCC[C@H]2C(=O)N[C@@H]2CCCc3ccccc32)c1)C(=O)N1CCC[C@H]1C(=O)N[C@@H]1CCCc2ccccc21 [Compound P2-26],0.08 µM
6,CN[C@@H](C)C(=O)N[C@@H](CCNC(=O)c1cc(N)cc(C(=O)NCC[C@H](NC(=O)[C@H](C)NC)C(=O)N2CCC[C@H]2C(=O)N[C@@H]2CCCc3ccccc32)c1)C(=O)N1CCC[C@H]1C(=O)N[C@@H]1CCCc2ccccc21 [Compound P2-27],0.165 µM
7,CN[C@@H](C)C(=O)N[C@@H](CCCCCC[C@H](NC(=O)[C@H](C)NC)C(=O)N1C[C@@H](NS(=O)(=O)c2ccccc2)C[C@H]1C(=O)N[C@@H]1CCCc2ccccc21)C(=O)N1C[C@@H](NS(=O)(=O)c2ccccc2)C[C@H]1C(=O)N[C@@H]1CCCc2ccccc21 [Compound P2-14],0.092 µM
8,CN[C@@H](C)C(=O)N[C@H](C(=O)N1CCC[C@H]1C(=O)N[C@H](COCc1cccc(COC[C@@H](NC(=O)[C@@H]2CCCN2C(=O)[C@@H](NC(=O)[C@H](C)NC)C(C)(C)C)C2CCCCC2)c1)c1ccccc1)C(C)(C)C [Compound P4-18],0.013 µM
9,CN[C@@H](C)C(=O)N[C@@H](CC#CC#CC[C@H](NC(=O)[C@H](C)NC)C(=O)N1CCC[C@H]1C(=O)NC1c2ccccc2-c2ccccc21)C(=O)N1CCC[C@H]1C(=O)NC1c2ccccc2-c2ccccc21 [Compound P2-5],0.091 µM

# Same assay, conditions: HCC461, HCC461 cells, compound alone; read-out: IC50 (uM) in cell viability assay in HCC461
row,Compound,IC50
1,CN[C@@H](C)C(=O)N[C@H](C(=O)N1C[C@@H](NC(=O)c2cc(C(=O)N[C@H]3C[C@@H](C(=O)NC4c5ccccc5-c5ccccc54)N(C(=O)[C@@H](NC(=O)[C@H](C)NC)C(C)(C)C)C3)[nH]n2)C[C@H]1C(=O)NC1c2ccccc2-c2ccccc21)C(C)(C)C [Compound P3-63],0.016 µM
2,CN[C@@H](C)C(=O)N[C@H](C(=O)N1C[C@@H](NC(=O)CCC(=O)N[C@H]2C[C@@H](C(=O)NC3CCCc4ccccc43)N(C(=O)[C@@H](NC(=O)[C@H](C)NC)C(C)(C)C)C2)C[C@H]1C(=O)NC1CCCc2ccccc21)C(C)(C)C (stereo partly shown) [Compound P3-1],0.022 µM
3,CN[C@@H](CO)C(=O)N[C@H](C(=O)N1C[C@@H](NC(=O)c2cccc(C(=O)N[C@H]3C[C@@H](C(=O)N[C@@H]4CCCc5ccccc54)N(C(=O)[C@@H](NC(=O)[C@H](CO)NC)C(C)(C)C)C3)c2)C[C@H]1C(=O)N[C@@H]1CCCc2ccccc21)C(C)(C)C [Compound P3-86],0.077 µM
4,CN[C@@H](C)C(=O)N[C@H]1CC#CC#CC[C@H](NC(=O)[C@H](C)NC)C(C)N2C[C@H](C[C@H]2C(=O)N[C@@H]2CCCc3ccccc32)NC(=O)c2ccc(cc2)C(=O)N[C@H]2C[C@@H](C(=O)N[C@@H]3CCCc4ccccc43)N(C2)C1C (stereo partly shown) [Compound P3-8],0.081 µM
5,CN[C@@H](C)C(=O)N[C@H](C(=O)N1C[C@@H](NC(=O)c2cc(Br)cc(C(=O)N[C@H]3C[C@@H](C(=O)NC4CCCc5ccccc54)N(C(=O)[C@@H](NC(=O)[C@H](C)NC)C(C)(C)C)C3)c2)CC1C(=O)N[C@@H]1CCCc2ccccc21)C(C)(C)C (stereo partly shown) [Compound P3-29],0.016 µM
6,"CN[C@@H](C)C(=O)N[C@H](C(=O)N1C[C@@H](NC(=O)c2ccc(CNC(=O)CCC(=O)NCc3ccc(C(=O)N[C@H]4C[C@@H](C(=O)NC5CCCc6ccccc65)N(C(=O)[C@@H](NC(=O)[C@H](C)NC)C(C)(C)C)C4)cc3)cc2)C[C@H]1C(=O)NC1CCCc2ccccc21)C(C)(C)C (single isomer, unassigned) [Compound P3-70]",0.06 µM
7,CN[C@@H](C)C(=O)N[C@H](C(=O)N1C[C@@H](NC(=O)c2cccc(C(=O)N[C@H]3C[C@@H](C(=O)N[C@@H]4CCCc5ccccc54)N(C(=O)[C@@H](NC(=O)[C@H](C)NC)C(C)(C)C)C3)n2)C[C@H]1C(=O)N[C@@H]1CCCc2ccccc21)C(C)(C)C [Compound P3-10],0.046 µM
8,CN[C@@H](C)C(=O)N[C@H](C(=O)N1C[C@@H](NC(=O)c2cccc(C(=O)N[C@H]3C[C@@H](C(=O)N[C@H](C)c4ccccc4)N(C(=O)[C@@H](NC(=O)[C@H](C)NC)C4CCCCC4)C3)c2)C[C@H]1C(=O)N[C@H](C)c1ccccc1)C1CCCCC1 [Compound P3-77],0.014 µM
9,CN[C@@H](C)C(=O)N[C@H](C(=O)N1C[C@@H](NC(=O)c2cccc(C(=O)N[C@H]3C[C@@H](C(=O)N[C@H](C)c4ccccc4)N(C(=O)[C@@H](NC(=O)[C@H](C)NC)C(C)C)C3)c2)C[C@H]1C(=O)N[C@H](C)c1ccccc1)C(C)C [Compound P3-80],0.053 µM

# Same assay, conditions: HCC461; Tables 15-18; read-out: IC50 (uM) in cell viability assay in HCC461
row,Compound,IC50
1,"CN[C@@H](C)C(=O)N[C@H](C(=O)N1CCC[C@H]1C(=O)N[C@H](CNC(=O)C1CCCCC1C(=O)NC[C@@H](NC(=O)[C@@H]1CCCN1C(=O)[C@@H](NC(=O)[C@H](C)NC)C(C)(C)C)C1CCCCC1)C1CCCCC1)C(C)(C)C (single isomer, unassigned) [Compound P4-3]",0.03 µM

# Same assay, conditions: HCC461 cells, compound alone; read-out: IC50 (uM) in cell viability assay in HCC461
row,Compound,IC50
1,CN[C@@H](C)C(=O)N[C@H](C(=O)N1C[C@@H](NC(=O)C2CCCC(C(=O)N[C@H]3C[C@@H](C(=O)NC4CCCc5ccccc54)N(C(=O)[C@@H](NC(=O)[C@H](C)NC)C(C)(C)C)C3)C2)CC1C(=O)N[C@@H]1CCCc2ccccc21)C(C)(C)C (stereo partly shown) [Compound P3-28],0.019 µM
2,CN[C@@H](C)C(=O)N[C@H](C(=O)N1C[C@@H](NC(=O)C2CCCC(C(=O)N[C@H]3C[C@@H](C(=O)NC4CCCc5ccccc54)N(C(=O)[C@@H](NC(=O)[C@H](C)NC)C(C)(C)C)C3)C2)CC1C(=O)N[C@@H]1CCCc2ccccc21)C(C)(C)C (stereo partly shown) [Compound P3-27],0.031 µM
